Measured values as given in patent publication US9434687B2, “Detection of synthetic cannabinoids” (priority 2011, dated 2016).
Where two headings read alike, the source gives them in different places.

Assays:
Assay type in all cases: binding, sheep
[1] = system: antiserum raised to Immunogen II (Hapten B-BTG); assay: Competitive ELISA microtiter plate assay, antiserum raised to Immunogen II, conjugate Hapten A-HRP (Example 19)
Procedure: Aqueous solutions of the immunogens prepared in examples 5 and 13 were formulated with Freund's Complete Adjuvant (FCA) to form emulsions consisting of 2 mg/ml Immunogen I and 2 mg/ml of Immunogen II in 50% (v/v) FCA. Three sheep were immunised with each emulsion (1° immunisations), 0.25 ml being intramuscularly injected at four sites in the rump of each animal. Subsequent immunisations (boosts 2-8) contained 1 mg/ml Immunogen I and 1 mg/ml Immunogen II. All boosts were emulsified in 50% (v/v) Freund's Incomplete Adjuvant (FIA) and administered to the appropriate sheep in the same manner as the 1° immunisations, at monthly intervals. Blood sampling took place 7-14 days after each boost. Each sample was processed to produce antiserum, which was further purified by caprylic acid and ammonium sulphate precipitation to yield an immunoglobulin (Ig) fraction. The Ig fraction was evaluated by competitive ELISA microtiter plate assay, as described in example 19 below.
(a) The wells of an enhanced binding 96 well polystyrene microtiter plate were coated with the Ig fraction of the antiserum raised to Immunogen I (Hapten A-BTG—example 5) and diluted in 10 mM Tris, pH8.5 (125 μl/well). The appropriate antibody coating concentration was determined using standard ELISA checkerboard techniques. The plate was incubated for 2 hours at 37° C., washed 4 times over a 10-minute period with Tris buffered saline containing Tween 20 (TBST) and tapped dry. Standard solutions of JWH synthetic cannabinoids, metabolites and selected molecules were prepared in TBST and 50 μl of each was added to the appropriate wells. 75 μl of conjugate (Hapten A-HRP) diluted in Tris buffer containing EDTA, D-mannitol, sucrose, thimerosal and BSA, was added to each of the wells. The appropriate dilution of conjugate was also determined using standard ELISA checkerboard techniques. The plate was incubated at 25° C. for 1 hour. The excess unbound conjugate was removed by washing 6 times over a 10-minute period with TBST and tapped dry. 125 μl of tetramethylbenzedine (TMB) substrate solution was added to each well of the plate that was then incubated for 15-20 minutes in the dark at room temperature. The reaction was terminated by addition of 125 μl of 0.2M sulphuric acid to each well. The absorbance was then measured at 450 nm using a microtiter plate reader.
Employing each series of standards, calibration curves were generated and these were used to determine the specificity of the immunoassay for the JWH synthetic cannabinoids, metabolites and selected molecules. The results of this study are presented in Tables 1 to 3, cross-reactivity being calculated according to the following formula: % CR=IC50,JWH-018/IC50,CR×100
Where % CR is the percentage cross-reactivity, IC50, JWH-018 is the concentration of JWH-018 that causes 50% displacement of signal and IC50, CR is the concentration of JWH synthetic cannabinoid/metabolite/selected molecule that causes 50% displacement of signal.
Table 1: Data generated from a competitive microtiter plate assay for JWH synthetic cannabinoids and metabolites, employing antiserum raised to Immunogen II (Hapten B-BTG) and conjugate (Hapten A-HRP) as detection reagent.
(d) The resulting competitive ELISA for synthetic cannabinoids and metabolites was also employed to test for the 5-fluoropentyl derivative of JWH-018, (1-(5-fluoropentyl)indol-3yl (1-naphthyl) methanone (Table 4).

[2] = system: IgG fraction of antiserum raised to Immunogen IV
[3] = system: IgG fraction of antiserum raised to Immunogen VII; settings: Antibody to Immunogen VII; cross-reactants at 100 ng/ml; 1000 ng/ml; standard JWH-015
[4] = Table 1, CR based on 100% for JWH-018
[5] = Table 1, detecting agent derived from Hapten-A, 40 ng/ml highest concentration tested
[6] = Table 4, Immunogen II, relative to JWH-018
[7] = Antibody to Immunogen IV, cross-reactants at 100 ng/ml, 1000 ng/ml, standard JWH-018

Structure (SMILES)	% Cross-reactivity [1, 4]	IC50 [1, 5]	IC50 ([1]; Table 4, Immunogen II)	% Cross-reactivity [1, 6]	% B/B0 [2, 7]	% B/B0 ([2]; JWH-018 1.25 ng/ml)	% B/B0 ([2]; JWH-018 2.5 ng/ml)	% B/B0 ([2]; JWH-018 5 ng/ml)	% B/B0 ([2]; JWH-018 10 ng/ml)	% B/B0 ([2]; JWH-018 20 ng/ml)	% B/B0 ([2]; JWH-018 40 ng/ml)	% B/B0 ([2]; JWH-018 80 ng/ml)	IC50 ([2]; Table 8 standard curve, standard concentration which produces 50% B/B0)	% B/B0 [3]
CCCCCn1cc(C(=O)c2cccc3ccccc23)c2ccccc21 [JWH-018]	100.00%	2.11 ng/mL	1.97 ng/mL	100.00%	6.80%	87%	68%	42%	26%	16%	10%	7%	4.133 ng/mL	67.66%
CCCCn1cc(C(=O)c2cccc3ccccc23)c2ccccc21 [JWH-073]	135.26%	1.56 ng/mL			13.63%									58.34%
O=C(O)CCCCn1cc(C(=O)c2cccc3ccccc23)c2ccccc21 [JWH-018 N-pentanoic acid metabolite]	38.50%	5.48 ng/mL			99.89%									53.02%
O=C(c1cccc2ccccc12)c1cn(CCCCCF)c2ccccc12 [AM-2201, 1-(5-Fluoropentyl)indol-3-yl (1-naphthyl) methanone]			0.22 ng/mL	908.00%	6.20%									55.28%
CCCCCn1cc(C(=O)c2ccc(Cl)c3ccccc23)c2ccccc21 [JWH-398]	12.02%	17.55 ng/mL			6.00%									94.47%
CCCCCn1cc(C(=O)c2cccc3ccccc23)c2c(O)cccc21 [4-OH JWH-018, JWH-018 4-hydroxyindole metabolite]	23.03%	9.16 ng/mL			20.42%									89.96%
CCCCCn1cc(C(=O)c2cccc3ccccc23)c2ccc(O)cc21 [6-OH JWH-018, JWH-018 6-hydroxyindole metabolite]	215.31%	0.98 ng/mL			51.00%									68.17%
CCCCCn1cc(C(=O)c2cccc3ccccc23)c2cc(O)ccc21 [5-OH JWH-018, JWH-018 5-hydroxyindole metabolite]	130.25%	1.62 ng/mL			78.56%									85.76%
O=C(c1cccc2ccccc12)c1c[nH]c2ccccc12 [N-desalkyl JWH-018, 3-(1-naphthoyl)-1H-Indole]	<<5.28%	>>40 ng/ml			95.55%									80.08%
O=C(c1cccc2ccccc12)c1cn(CCCCCO)c2ccccc12 [JWH-018 N-(5-hydroxypentyl) metabolite]	183.48%	1.15 ng/mL			78.42%									53.32%
O=C(c1cccc2ccccc12)c1cn(CCN2CCOCC2)c2ccccc12 [JWH-200]	127.11%	1.66 ng/mL			77.08%									42.85%
